Experiment [1] has as its system isolated rat hearts subjected to global ischemia. Briefly: Isolated working rat heart, global ischemia and reperfusion: glycolysis and glucose oxidation. To be noted: digoxin 3 nM, metoprolol 1 μM. How it is done:
Hearts were trimmed of excess tissue, and the pulmonary artery and the opening to the left atrium were then cannulated. After 15 min of Langendorff perfusion, hearts were switched to the working mode by clamping the aortic inflow line from the Langendorff reservoir and opening the left atrial inflow line. The perfusate was delivered from an oxygenator into the left atrium at a constant preload pressure of 11 mm Hg. […] The afterload was set at a hydrostatic pressure of 80 mm Hg. […] Palmitate was bound to the albumin as described previously ([…]., et al. J Biol. Chem. 267:3825-3831 (1992)). […] For the aerobic model hearts, all tested compounds were introduced into the heart 5 minutes into the working mode following Langendorff Perfusion. […] All tested compounds were introduced into the perfusate five minutes prior to reperfusion. […] Am J Physiol. 270:[…]. Am J Cardiol. 80:3A-10A (1997)). […] In the global ischemia model, the total myocardial ^3H2O and ^14CO2 production were determined at 20 minute intervals for the 60 minute reperfusion period. […] L., et al. Biochemistr. 1923:6503-6062 (1984)).

Experiment [2] concerns isolated rat hearts. Briefly: Isolated working rat heart, aerobic perfusion: cardiac function and efficiency. On the set-up: Cardiac Work (CO · PSP): unit not given beside the values.
[3] abbreviates: aerobically perfused, DCA 2 mM, diltiazem 0.8 μM, digoxin 3 nM, metoprolol 1 μM, dobutamine 1 μM.

`COCCc1ccc(OCC(O)CNC(C)C)cc1` (stereo not shown) [Metoprolol, metoprolol]: the “glycolytic rates as compared to control, in words” value in experiment [1] (FIG. 10, FIG. 16, DCA 2 mM) is recorded as “neither DCA, metoprolol or metoprolol with DCA altered glycolytic rates”. Also, the “glucose oxidation rates, in words” value in experiment [1] (reperfusion period, FIG. 9, FIG. 15, DCA 2 mM) is “no effect”. Besides, in experiment [2] (setting [3]), the “Aortic Outflow” value was 35 ± 5 mL/min, the “Cardiac Efficiency (CW · O2^−1)” value came out at 1.85 ± 0.15, the “Cardiac Output” value is 55 ± 8 mL/min and the “Cardiac Work (CO · PSP)” value stood at 71 ± 10. Also, in experiment [2] (setting [3]), the “Coronary Flow” value came to 20 ± 3 mL/min, the “HR × PSP” value is listed as 32 ± 4 beats · min^−1 · mmHg · 10^−2, the “Heart Rate” value amounted to 250 ± 26 beats · min^−1 and the “O2 Consumption” value was 40 ± 9 μmolO2 · g dry wt^−1 · min^−1. Also, the “Peak Systolic Pressure” value in experiment [2] (setting [3]) was determined as 130 ± 2 mmHg. In experiment [2] (normal hearts, aerobic, compared to control), the “effect on functional parameters shown in Table 2 incl. O2 consumption and cardiac efficiency, in words” value is “no significant effect”. For the same molecule, the “effect on functional parameters shown in Table 1 (heart rate, peak systolic pressure, HR×PSP), in words” value in experiment [2] (normal hearts, aerobic, compared to control (DCA and dobutamine: compared to dobutamine alone)) is reported as “no significant effect”.

(Values after patent US20120064056A1, “DICHLORACETATE IN COMBINATION WITH CLINICALLY HIGH LEVELS OF CARDIOPROTECTIVE OR HEMODYNAMIC DRUGS” (THE GOVERNORS OF THE UNIVERSITY OF ALBERTA TEC Edmonton, priority 2002, published 2012).)
